# Measurements published in PubChem BioAssay AID328 (DTP/NCI, 2004).
# Values joined by “and” are separate entries in the source; they are usually repeats but may differ in a detail not shown here. Equal values may be shown once. Toxic doses and inconclusive results are not listed.
# Tested on: BDF1 mice, P388 leukemia ip, median survival T/C
# Assay: NCI In Vivo Anticancer Drug Screen. Data for tumor model P388 Leukemia (intraperitoneal) in B6D2F1 (BDF1) mice
# Details: endpoint: median survival time, higher = longer survival
# Method in brief: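 Each value expresses how treatment altered survival: treated-mouse outcome over vehicle-mouse outcome, both groups bearing the transplanted tumour.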
# [1] = dose: 100.0 mg/kg/injection, schedule: Q04DX003 (ip), vehicle: saline with Tween-80
# [2] = dose: 200.0 mg/kg/injection, schedule: Q04DX003 (ip), vehicle: saline with Tween-80
# [3] = dose: 400.0 mg/kg/injection, schedule: Q04DX003 (ip), vehicle: saline with Tween-80
# [4] = dose: 50.0 mg/kg/injection, schedule: Q01DX009 (ip), vehicle: saline with Tween-80
# [5] = dose: 50.0 mg/kg/injection, schedule: Q04DX003 (ip), vehicle: saline with Tween-80
# [6] = dose: 100.0 mg/kg/injection, schedule: Q01DX009 (ip), vehicle: saline with Tween-80
# [7] = dose: 25.0 mg/kg/injection, schedule: Q04DX003 (ip), vehicle: saline
# [8] = dose: 100.0 mg/kg/injection, schedule: Q04DX003 (ip), vehicle: saline
# [9] = dose: 25.0 mg/kg/injection, schedule: Q01DX009 (ip), vehicle: Klucel (hydroxypropylcellulose) (HPC)
compound,measurement,setting,value
CNC[C@@H](O)c1ccc(O)c(O)c1,T/C,"dose: 0.25 mg/kg/injection, schedule: Q04DX003 (ip), vehicle: saline",110 % of control
same,T/C,"dose: 0.5 mg/kg/injection, schedule: Q01DX009 (ip), vehicle: saline",91 % of control and 109 % of control
same,T/C,"dose: 0.5 mg/kg/injection, schedule: Q04DX003 (ip), vehicle: saline",110 % of control
same,T/C,"dose: 1.0 mg/kg/injection, schedule: Q01DX001 (ip), vehicle: saline",95 % of control
same,T/C,"dose: 1.0 mg/kg/injection, schedule: Q01DX009 (ip), vehicle: saline",100 % of control
same,T/C,"dose: 1.0 mg/kg/injection, schedule: Q04DX003 (ip), vehicle: saline",105 % of control
same,T/C,"dose: 2.0 mg/kg/injection, schedule: Q01DX001 (ip), vehicle: saline",104 % of control
same,T/C,"dose: 2.0 mg/kg/injection, schedule: Q01DX009 (ip), vehicle: saline",91 % of control and 109 % of control
same,T/C,"dose: 2.0 mg/kg/injection, schedule: Q04DX003 (ip), vehicle: saline",86 % of control
same,T/C,"dose: 4.0 mg/kg/injection, schedule: Q01DX009 (ip), vehicle: saline",95 % of control and 100 % of control
same,T/C,"dose: 9.0 mg/kg/injection, schedule: Q01DX009 (ip), vehicle: saline",95 % of control
CC(CC(=N)N)NC(=O)C1CCC(N)=N1 (centres undefined),T/C,"dose: 150.0 mg/kg/injection, schedule: Q01DX009 (ip), vehicle: saline",98 % of control
same,T/C,"dose: 300.0 mg/kg/injection, schedule: Q01DX009 (ip), vehicle: saline",98 % of control
CCCNC(=O)Nc1cc(C(F)(F)F)ccc1Cl,T/C,[1],100 % of control
same,T/C,[2],100 % of control
same,T/C,[3],100 % of control
S=C(S)NNc1ccccc1,T/C,"dose: 25.0 mg/kg/injection, schedule: Q01DX009 (ip), vehicle: saline with Tween-80",86 % of control
same,T/C,"dose: 25.0 mg/kg/injection, schedule: Q04DX003 (ip), vehicle: saline with Tween-80",110 % of control
same,T/C,[4],100 % of control
same,T/C,[5],105 % of control
same,T/C,[6],100 % of control
same,T/C,[1],100 % of control
CC1SCC(=O)N1c1nccs1 (centres undefined),T/C,[4],99 % of control
same,T/C,[6],100 % of control
same,T/C,"dose: 200.0 mg/kg/injection, schedule: Q01DX009 (ip), vehicle: saline with Tween-80",102 % of control
O=[N+]([O-])c1ccc(Cl)c(S(=O)O)c1,T/C,"dose: 75.0 mg/kg/injection, schedule: Q04DX003 (ip), vehicle: saline",95 % of control
same,T/C,"dose: 150.0 mg/kg/injection, schedule: Q04DX003 (ip), vehicle: saline",100 % of control
same,T/C,"dose: 300.0 mg/kg/injection, schedule: Q04DX003 (ip), vehicle: saline",95 % of control
N#Cc1ncc(C(Cl)(Cl)Cl)nc1Cl,T/C,[4],110 % of control
same,T/C,[5],105 % of control
same,T/C,[6],120 % of control
same,T/C,[1],115 % of control and 118 % of control
same,T/C,[2],120 % of control
CN(C)CC(=O)N/N=C\c1ccc([N+](=O)[O-])s1,T/C,[7],87 % of control
same,T/C,"dose: 50.0 mg/kg/injection, schedule: Q04DX003 (ip), vehicle: saline",87 % of control
same,T/C,[8],91 % of control
O=CNC(Cc1ccc(O)cc1)C(=O)O (centres undefined),T/C,[8],110 % of control
same,T/C,"dose: 200.0 mg/kg/injection, schedule: Q04DX003 (ip), vehicle: saline",100 % of control
same,T/C,"dose: 400.0 mg/kg/injection, schedule: Q04DX003 (ip), vehicle: saline",100 % of control
O=C(Nc1ccc(NC(=O)Nc2ccc(C3=NCCCN3)cc2)cc1)Nc1ccc(C2=NCCCN2)cc1,T/C,"dose: 8.3 mg/kg/injection, schedule: Q04DX003 (ip), vehicle: saline",122 % of control
same,T/C,"dose: 12.0 mg/kg/injection, schedule: Q04DX003 (ip), vehicle: saline",122 % of control
same,T/C,"dose: 19.0 mg/kg/injection, schedule: Q04DX003 (ip), vehicle: saline",165 % of control
same,T/C,"dose: 29.0 mg/kg/injection, schedule: Q04DX003 (ip), vehicle: saline",175 % of control
same,T/C,"dose: 65.0 mg/kg/injection, schedule: Q04DX003 (ip), vehicle: saline",154 % of control
same,T/C,"dose: 95.0 mg/kg/injection, schedule: Q04DX003 (ip), vehicle: saline",163 % of control
COc1ccccc1NC(=O)c1ccc(Cl)cc1Cl,T/C,[9],116 % of control
same,T/C,"dose: 50.0 mg/kg/injection, schedule: Q01DX009 (ip), vehicle: Klucel (hydroxypropylcellulose) (HPC)",122 % of control
same,T/C,"dose: 100.0 mg/kg/injection, schedule: Q01DX009 (ip), vehicle: Klucel (hydroxypropylcellulose) (HPC)",122 % of control
same,T/C,"dose: 100.0 mg/kg/injection, schedule: Q04DX003 (ip), vehicle: Klucel (hydroxypropylcellulose) (HPC)",100 % of control
same,T/C,"dose: 200.0 mg/kg/injection, schedule: Q01DX009 (ip), vehicle: Klucel (hydroxypropylcellulose) (HPC)",104 % of control
same,T/C,"dose: 200.0 mg/kg/injection, schedule: Q04DX003 (ip), vehicle: Klucel (hydroxypropylcellulose) (HPC)",95 % of control
same,T/C,"dose: 400.0 mg/kg/injection, schedule: Q01DX009 (ip), vehicle: Klucel (hydroxypropylcellulose) (HPC)",104 % of control
same,T/C,"dose: 400.0 mg/kg/injection, schedule: Q04DX003 (ip), vehicle: Klucel (hydroxypropylcellulose) (HPC)",104 % of control
[NH-]C(CO)C(=O)O.[NH-]C(CO)C(=O)O.[Pt+2] (centres undefined),T/C,"dose: 12.5 mg/kg/injection, schedule: Q01DX009 (ip), vehicle: distilled water + Tween-80",115 % of control
same,T/C,"dose: 25.0 mg/kg/injection, schedule: Q01DX009 (ip), vehicle: distilled water + Tween-80",117 % of control
same,T/C,"dose: 50.0 mg/kg/injection, schedule: Q01DX009 (ip), vehicle: distilled water + Tween-80",115 % of control
same,T/C,"dose: 100.0 mg/kg/injection, schedule: Q01DX009 (ip), vehicle: distilled water + Tween-80",115 % of control
COc1ccc(C(c2ccc(OC)cc2)C(Cl)(Cl)Cl)cc1,T/C,"dose: 100.0 mg/kg/injection, schedule: Q01DX001 (ip), vehicle: Klucel (hydroxypropylcellulose) (HPC)",104 % of control
same,T/C,"dose: 200.0 mg/kg/injection, schedule: Q01DX001 (ip), vehicle: Klucel (hydroxypropylcellulose) (HPC)",100 % of control
same,T/C,"dose: 400.0 mg/kg/injection, schedule: Q01DX001 (ip), vehicle: Klucel (hydroxypropylcellulose) (HPC)",100 % of control
CCN1C[C@]2(COC)[C@H](O)C[C@H](OC)[C@]34C1[C@H]([C@H](OC)[C@H]23)[C@]1(OC(C)=O)[C@H]2[C@@H](OC(=O)c3ccccc3)[C@](O)(C[C@H]24)[C@@H](OC)[C@@H]1O,T/C,"dose: 0.13 mg/kg/injection, schedule: Q01DX009 (ip), vehicle: Klucel (hydroxypropylcellulose) (HPC)",93 % of control
same,T/C,"dose: 0.25 mg/kg/injection, schedule: Q01DX009 (ip), vehicle: Klucel (hydroxypropylcellulose) (HPC)",91 % of control
COc1ccc(C=Nc2ccccc2)cc1,T/C,[1],100 % of control
same,T/C,[2],100 % of control
same,T/C,[3],100 % of control
CC(=O)OC(C)(C)c1ccccc1[S+]1OC(C)(C)c2ccccc21 (centres undefined),T/C,"dose: 100.0 mg/kg/injection, schedule: Q01DX001 (ip), vehicle: other",100 % of control
O=[N+]([O-])c1ccc(-[n+]2nc(-c3ccccc3)nn2-c2ccc(I)cc2)cc1,T/C,"dose: 12.5 mg/kg/injection, schedule: Q01DX009 (ip), vehicle: Klucel (hydroxypropylcellulose) (HPC)",100 % of control
same,T/C,"dose: 16.5 mg/kg/injection, schedule: Q04DX003 (ip), vehicle: Klucel (hydroxypropylcellulose) (HPC)",90 % of control
same,T/C,"dose: 16.5 mg/kg/injection, schedule: Q04DX003 (ip), vehicle: saline",122 % of control
same,T/C,[9],110 % of control
same,T/C,"dose: 25.0 mg/kg/injection, schedule: Q04DX003 (ip), vehicle: Klucel (hydroxypropylcellulose) (HPC)",109 % of control
same,T/C,[7],109 % of control
same,T/C,"dose: 37.5 mg/kg/injection, schedule: Q04DX003 (ip), vehicle: Klucel (hydroxypropylcellulose) (HPC)",100 % of control
same,T/C,"dose: 37.5 mg/kg/injection, schedule: Q04DX003 (ip), vehicle: saline",122 % of control
CCCCCCCCCCCCSCCCCSCCCCCCCCCCCC,T/C,"dose: 100.0 mg/kg/injection, schedule: Q01DX001 (ip), vehicle: saline sonified",100 % of control
same,T/C,"dose: 200.0 mg/kg/injection, schedule: Q01DX001 (ip), vehicle: saline sonified",86 % of control
CC(=O)CC(C)=O.CC(=O)CC(C)=O.[CH3][Sn][CH3],T/C,"dose: 25.0 mg/kg/injection, schedule: Q01DX001 (ip), vehicle: Klucel (hydroxypropylcellulose) (HPC)",111 % of control
same,T/C,"dose: 50.0 mg/kg/injection, schedule: Q01DX001 (ip), vehicle: Klucel (hydroxypropylcellulose) (HPC)",119 % of control
COC1(OC)C2(Cl)CC(c3ccc(Cl)cc3)C1(Cl)C(Cl)=C2Cl (centres undefined),T/C,[5],100 % of control
same,T/C,[1],95 % of control
same,T/C,[2],90 % of control
c1ccc(Sc2c(Sc3ccccc3)c(Sc3ccccc3)c(Sc3ccccc3)c(Sc3ccccc3)c2Sc2ccccc2)cc1,T/C,[1],99 % of control
same,T/C,[2],101 % of control
same,T/C,[3],90 % of control
